From patent US9120814B2, “Compounds with embedded benzopyran motif for core structures and preparation method thereof” (SNU R&DB FOUNDATION, priority 2006, dated 2015)
pIC50: −log10 of the molar value.

Columns and labels:
[1] = tested on: prostate specific antigen (PSA) as a target protein of androgen receptor; assay: Western blot of PSA expression in LNCaP cells (FIG. 1); type: cell-based; conditions: LNCaP androgen-dependent human prostate cancer cell line; compared with bicalutamide
[2] = tested on: androgen receptor (AR) target gene; assay: RT-PCR of androgen receptor target gene mRNA (FIG. 2); type: cell-based
[3] = tested on: A549 lung carcinoma cell; assay: Cell viability, CCK-8 assay, A549; type: cell-based; conditions: Homo sapiens; A549 cells, 72 hr treatment; read-out: IC50 (after 72 hr treatment) A549
Procedure: (§1) The human cancer cell line (A549 lung carcinoma cell, Hela adenocarcinoma cell, U266 myeloma cell) was obtained from American Type Culture Collection (Manassas, Va. USA) and maintained in complete medium [RPMI. 1640 supplemented with heat-inactivated 10% FBS (USP, Austin, Tex., USA) and with 1% antibiotic-antimycotic solution (USP, Austin, Tex., USA)]. The cells were maintained in a humidified atmosphere of 5% CO2 and 95% air at 37° C., and cultured in T75 Flask (Nalge Nune International, Naperville, Ind., USA).
(§2) Cell viability was measured by a cell counting kit (CCK-8 assay, Dojindo, Tokyo, Japan), and the experimental procedure is based on the manufacturer's manual. The cells were cultured into 96-well plates at a density of 2×10^4 cells/well for 24 hours, followed by the treatment of the compounds of the present invention at various concentrations. […] Louis, Mo., USA)) was added to each well, and plates were incubated for additional 2 hours at 37° C. The absorbance of each well at 450 nm was measured with a reference at 630 nm using a Bio-Tek model ELx800™ microplate reader (Bio-Tek Instruments, Inc., Winooski, Vt., USA). The percentage of cell viability was calculated by following Mathematical Equation 1. […]

[4] = tested on: Hela adenocarcinoma cell; assay: Cell viability, CCK-8 assay, Hela; type: cell-based; conditions: Homo sapiens; Hela cells, 72 hr treatment; read-out: IC50 (after 72 hr treatment) Hela
Procedure: as §1, §2

[5] = tested on: U266 myeloma cell; assay: Cell viability, CCK-8 assay, U266; type: cell-based; conditions: Homo sapiens, U-266; U266 cells, 72 hr treatment; read-out: IC50 (after 72 hr treatment) U266
Procedure: as §1, §2

[6] = molecular target: T1, RAR-related orphan receptor α (RORα) (Homo sapiens, UniProt P35398); assay: Agonistic effect on RORα
T1 sequence (P35398 1-523): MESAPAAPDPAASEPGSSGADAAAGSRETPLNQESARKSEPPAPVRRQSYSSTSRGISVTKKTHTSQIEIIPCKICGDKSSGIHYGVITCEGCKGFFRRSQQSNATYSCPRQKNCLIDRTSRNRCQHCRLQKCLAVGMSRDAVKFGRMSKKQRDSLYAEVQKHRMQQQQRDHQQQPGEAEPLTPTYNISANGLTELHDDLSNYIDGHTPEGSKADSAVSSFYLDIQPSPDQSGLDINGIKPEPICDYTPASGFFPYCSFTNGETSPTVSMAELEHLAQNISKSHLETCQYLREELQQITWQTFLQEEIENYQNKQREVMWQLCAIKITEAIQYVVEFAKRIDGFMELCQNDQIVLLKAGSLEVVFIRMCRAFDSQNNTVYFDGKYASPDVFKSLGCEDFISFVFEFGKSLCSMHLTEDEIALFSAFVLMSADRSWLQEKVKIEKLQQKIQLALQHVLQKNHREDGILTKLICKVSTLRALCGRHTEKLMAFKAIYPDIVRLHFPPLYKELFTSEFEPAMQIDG

Row | Structure (SMILES) | anticancer activity based on the expression amount of PSA (western blot) [1] | mRNA amount of NK3 transcription factor related, locus 1 (NKX3-1) [2] | mRNA amount of kallikrein-related peptidase 2 (KLK2) [2] | mRNA amount of prostate specific antigen (PSA) [2] | pIC50 [3] | pIC50 [4] | pIC50 [5] | agonistic effect of activating RORα [6]
1 | O=C1C2C3=C(c4ccc(O)cc4OC34CCCC4)[C@@H](O)[C@H](c3ccccc3)C2C(=O)N1Cc1ccccc1 (some centres unmarked) [Compound 96] | almost analogous to that of bicalutamide | decreasing | decreasing | decreasing |  |  |  | 
2 | COc1ccc2c(c1O)OC(C)(C)C=C2c1ccc(Cl)cc1C [Compound 95] |  |  |  |  | 6.42 | 6.35 | 6.34 | agonistic effect
